Reference: patent US20170304168A1, “PHENYL KETONE DERIVATIVES AS SELF-TANNING AGENTS” (MERCK PATENT GmbH, priority 2012, published 2017)

Test system: B16V mouse melanoma cells
Test: B16 V mouse melanoma cell test (melanin content)
Assay type: cell-based
Settings: for Melanin content in pg/B-16V cell: relative to negative control DMSO 0.1% = 100
Description: mouse melanoma cells (manufacturer: DSMZ; Article No.: ACC370) in RPMI medium (Invitrogen, Article No.: 31870), to which 10% of FBS (foetal bovine serum; Invitrogen, Article No.: 10499044), 2 mM L-glutamine (Invitrogen, Article No: 25030) and 1 mM sodium pyruvate (Invitrogen, Article No.: 11360) had additionally been added (=modified RPMI medium), are transferred into a culture flask and incubated at 37° C. and 5% CO2 for 72 h. The medium is separated off, and the cells are washed with 10 ml of D-PBS (Dulbecco's phosphate-buffered salines; Invitrogen, Article No.: 14190) and subsequently removed by suction. 1 ml of HyQtase cell detachment solution (Hyclone, Article No.: SV30030.01) is added to the cells. The bottle is swirled a number of times, and the HyQtase cell detachment solution is subsequently removed by suction. The cells are then incubated in the incubator at 37° C. and 5% CO2 for 5 min. The cells are taken up in the modified RPMI medium (see above), and the cell count is determined. To this end, the cells are stained with Trypan Blue and counted in a Neubauer chamber. The cells are subsequently sown out again in the modified RPMI medium (see above) in a defined cell count of 80,000 cells per well (6-well clear plate, TCT, PS (Nunc)). The cells are incubated at 37° C. and 5% CO2 for 24 h, the medium is then removed. The substance to be investigated (see table below) is subsequenly added in various concentrations. After the final incubation period, the medium is removed by suction, and the cells are washed with 1000 μl of D-PBS (Invitrogen, Article No.: 14190). The medium is again removed by suction. 250 μl of HyQtase cell detachment solution (Hyclone, Article No.: SV30030.01) are added to the cells. The 6-well plate is swirled a number of times, and the HyQtase cell detachment solution is subsequently removed by suction. The cells are then incubated in the incubator at 37° C. and 5% CO2 for 5 min. The cells are taken up in 1.5 ml of DPBS (Invitrogen, Article No.: 14190) and transferred into a cup (SARSTEDT, Ref. 72.692.005). The cell count is subsequently determined. To this end, the cells are stained with Trypan Blue and counted in a NeuBauer chamber. The cells are then centrifuged at 3500 g for 1 min. The pellets obtained are photographed, and the supernatant is subsequently removed by suction. The pellets are dissolved in 1 ml of 1N NaOH at 80° C. for 1 h and then cooled to RT. 200 μl per cup (as quadruple determination) are subsequently pipetted into a 96-well plate (VWR, Article No.: 4100636981), and the absorption at a wavelength of 405 nm is determined (Safire, Tecan). The content of melanin can be determined in this way by means of a calibration line. As comparison with the compounds of the formula I to be investigated, a sample with dimethyl sulfoxide (DMSO) (0.1%) as negative control and a sample with IBMX (200 μm) as positive control are each investigated in parallel. The following tables give the results of the determination of the melanin concentration obtained for the substance dilutions indicated. The results obtained are quoted relative to the negative control with dimethyl sulfoxide (DMSO), whose measurement value is set to 100%. IBMX serves as positive control.

[1] = Test 1, 300 μM (printed 300 µM)

Compound | Effect on melanogenesis (result in words) (Result of Test 1) | Melanin content in pg/B-16V cell (Test 1, 50 μM) | Effect on melanogenesis (result in words) (Result of Test 2) | Melanin content in pg/B-16V cell (Test 2, 100 μM) | Melanin content in pg/B-16V cell (Test 2, 500 μM) | further results
CC(=O)c1ccccc1O [Ia, 1-(2-Hydroxyphenyl)ethanone] | promote melanogenesis | 191 pg/B-16V cell |  |  |  | Melanin content in pg/B-16V cell [1]: 429 pg/B-16V cell; Melanin content in pg/B-16V cell (Test 1, 1 mM): 438 pg/B-16V cell
COc1ccccc1C(C)=O [Ib, 1-(2-Methoxyphenyl)ethanone] | promote melanogenesis | 202 pg/B-16V cell |  |  |  | Melanin content in pg/B-16V cell [1]: 318 pg/B-16V cell; Melanin content in pg/B-16V cell (Test 1, 1 mM): 611 pg/B-16V cell
CC(=O)c1c(O)cc(O)cc1O [Ic] | promote melanogenesis | 129 pg/B-16V cell |  |  |  | Melanin content in pg/B-16V cell (Test 1, 100 μM): 144 pg/B-16V cell; Melanin content in pg/B-16V cell (Test 1, 500 μM): 184 pg/B-16V cell
CC(C)Cn1c(=O)n(C)c(=O)c2[nH]cnc21 [IBMX, reference compound] |  |  |  |  |  | Melanin content in pg/B-16V cell (Test 1, 200 μM (printed 200 µM)): 726 pg/B-16V cell; Melanin content in pg/B-16V cell (Test 2, 200 μM (printed 200 µM)): 338 pg/B-16V cell
COc1cc(OC)c(C(C)=O)c(OC)c1 [Ih] |  |  | promote melanogenesis | 126 pg/B-16V cell | 164 pg/B-16V cell | 
COc1cccc(O)c1C(C)=O [Id, 1-(2-Hydroxy-6-methoxyphenyl)ethanone] |  |  | promote melanogenesis | 275 pg/B-16V cell | 432 pg/B-16V cell | 
CC(=O)c1ccccc1N [Ig] |  |  | promote melanogenesis | 133 pg/B-16V cell | 209 pg/B-16V cell | 
COc1ccc(C(C)=O)c(OC)c1 [Ie, 1-(2,4-Dimethoxyphenyl)-ethanone] |  |  | promote melanogenesis | 104 pg/B-16V cell | 121 pg/B-16V cell | 
